Test system: IL-1 alpha secretion by cocultures of fibroblasts and keratinocytes
Assay: IL-1 alpha assay: ELISA of IL-1α secreted by fibroblast/keratinocyte cocultures exposed to a surfactant irritant with botanical added
Assay type: cell-based, human
Settings: hand dishwashing detergent; for Percent IL-1 α Reduction AVG: average of 1%, 0.1%, 0.01%
Description: IL-1 alpha is one cytokine often released near the beginning of the inflammation cascade, which ultimately leads to a human biological response resulting in visible and/or perceptual signs of irritation. Accordingly, by reducing the initial response to an irritant, such as a surfactant, the ultimate damaging reaction can be reduced, prevented, and/or eliminated.
The procedure for conducting IL-1 alpha assays is as follows: Cocultures of fibroblasts and keratinocytes, the primary cell types found in skin, are established using 100,000 fibroblasts and 200,000 keratinocytes per well. These types of cells are those found in the outer layers of the skin exposed to detergent during every day use. An irritant, for example the surfactant package used in a dish detergent (Example 1 below), is then applied to the coculture wells to initiate the production and secretion of pro-inflammatory cytokines by the cells. One such cytokine is human interleukin-1 alpha or IL-1α. In the body, this protein is a key mediator of the host response to infections and various inflammatory challenges. Once produced, IL-1α stimulates production of other pro-inflammatory cytokines and bioactive molecules. Together, these biological molecules send the message that something is wrong and the keratinocytes and fibroblasts need help. This is called the inflammatory response.
The amount of secreted IL-1α is directly related to the intensity of the inflammatory response. In vitro, the concentration of IL-1α secreted by the coculture cells in response to the irritant can be measured via a precise laboratory technique known as an Enzyme Linked Immuno-Sorbent Assay or ELISA. Thus, to test botanical materials for mildness, a lessening of IL-1α secretion, the mildness agents were added with the chemical irritant. When a reduction in IL-1α expression was observed, the mildness agents were successful. Theoretically, there are several mechanisms by which this could have been achieved at the cellular level. Without wishing to be bound to a particular theory or in any way limit the scope of the appended claims or their equivalents, it is presently believed that these mechanisms may include one or more of the following: the mildness agent could block the transcription of the DNA to RNA, translation of the RNA to protein, and/or release of the IL-1α from the cells. […] The mildness agent may also have stopped the cascade after the irritant works on the cell. Whatever the mechanism, the net result is the same. There is less IL-1α released by the cells which correlates to inhibition of events in the inflammatory cascade and ultimately, less inflammation.
These were prepared using a serial dilution technique: 1.0 g botanical was mixed well with 99.0 g dish detergent to give the 1.0% formulation; next, 10.0 g of the 1.0% solution was mixed well with 90.0 g of the dish detergent to give the 0.1% formulation; finally, 10.0 g of the 0.1% solution was mixed well with 90.0 g of the dish detergent to give the 0.01% formulation.

| Molecule | Percent IL-1 α Reduction AVG [%] | Percent IL-1 α Reduction (botanical 0.01% by weight) [%] | Percent IL-1 α Reduction (botanical 0.1% by weight) [%] | Percent IL-1 α Reduction (botanical 1% by weight) [%] |
| --- | --- | --- | --- | --- |
| CC(C)=CCC[C@](C)(O)[C@@H]1CC=C(C)CC1 [Alpha bisabolol, (−)-α-bisabolol] | 6.67 | 19.00 | 2.00 | −1.00 |
| O=C(O[C@@H]1Cc2c(O)cc(O)cc2O[C@@H]1c1cc(O)c(O)c(O)c1)c1cc(O)c(O)c(O)c1 [EGCG, epigallocatechin gallate] | 10.50 | 12.50 | 12.10 | 6.90 |
| Oc1cc(O)c2c(c1)O[C@H](c1ccc(O)c(O)c1)[C@H](O)C2 [Epicatechin] | 29.97 | 26.2 | 22.1 | 41.6 |
| CC(C)=CCCC(C)=CCCC(C)=CCO [Farnesol] | 19.10 | 14.50 | 15.50 | 27.30 |
| CCCCCCCCCCCCCCCCCCOC(=O)[C@@]1(C)CC[C@]2(C)CC[C@]3(C)C(=CC(=O)[C@@H]4[C@@]5(C)CC[C@H](O)C(C)(C)[C@@H]5CC[C@]43C)[C@@H]2C1 [NET-STG, stearyl glycyrrhetinate] | 13.10 | 14.70 | 11.40 | 13.20 |
| O=P(O)(O)O[C@H]1[C@H](OP(=O)(O)O)[C@@H](OP(=O)(O)O)[C@H](OP(=O)(O)O)[C@@H](OP(=O)(O)O)[C@H]1OP(=O)(O)O [PHYTIC ACID EXTREME, phytic acid] | 14.16 | 15.01 | 12.56 | 14.91 |
| O=C(/C=C/c1ccc(O)c(O)c1)O[C@H](Cc1ccc(O)c(O)c1)C(=O)O [Rosmarinic Acid] | 28.80 | 34.5 | 31.8 | 20.1 |
| O=C1O[C@H]([C@@H](O)CO)C([O-])=C1OP(=O)([O-])[O-].O=C1O[C@H]([C@@H](O)CO)C([O-])=C1OP(=O)([O-])[O-].[Mg+2].[Mg+2].[Mg+2] [VC-PMG, Magnesium Ascorbyl Phosphate] | 21.93 | 29.70 | 23.80 | 12.30 |
| O=C1O[C@H]([C@@H](O)CO)C(O)=C1O [Vitamin C] | 7.33 | 10.30 | 8.50 | 3.20 |
| CC(=O)Oc1c(C)c(C)c2c(c1C)CCC(C)(CCC[C@H](C)CCC[C@H](C)CCCC(C)C)O2 (stereo partly shown) [Vitamin E acetate] | 26.73 | 25.80 | 27.50 | 26.90 |
| Catechin | 17.43 | 19.50 | 24.90 | 7.90 |
| Ceramide | 7.73 | −0.60 | 14.70 | 9.10 |
| Dimethiconol Panthenol [D.S.H. C N] | 19.31 | 22.25 | 16.43 | 19.24 |
| Dimethylsilanol Hyaluronate [AMINO DL-30] | 12.07 | 21.81 | 7.18 | 7.22 |
| Vitamin B12 | 9.17 | 17.70 | −3.20 | 13.00 |
| glutaurylamidoethyl indole [GLISTIN] | 22.63 | 18.50 | 31.80 | 17.60 |
